Laboratory results from US10647665B2, “Biaryl urea derivative or salt thereof and preparation process and use for the same” (Fudan University, priority 2016, dated 2020).

What was measured:
[1] = test system: Mouse Th17 cell differentiation; experiment: Inhibition of mouse Th17 cell differentiation (IL-17 by intracellular staining and flow cytometry); format: cell-based; details: compound at 0.3 μM, mouse spleen CD4+ T cells, 96 hours
Protocol: Experimental method: Mouse spleen CD4^+ T cells were isolated and differentiated into Th17 cells. CD4^+ T cells were cultured in the environment of anti-CD3 (0.25 μg/mL), anti-CD28 (1 μg/mL), anti-IL4 (2 μg/mL), anti-IFN-γ (2 μg/mL), TGF-β (5 ng/mL), and IL6 (20 ng/mL), and then the test compound was added. After 96 hours, the differentiation efficiency of Th17 was analyzed. Before collection of cells, PMA at 50 ng/mL and ionomycin at 500 ng/mL were added for stimulation for 4 hours, and the ratio of IL-17 was detected by intracellular staining and flow cytometry. At the same time, we used Live/Dead Cell Dye (Invitrogen) staining method to analyze the cell survival rate, to judge whether the drug had toxicity to cells, and determine the inhibition rate of the compound at a concentration of 0.3 μM on IL-17 differentiation by Th 17 cells.

[2] = molecular target: RORγ receptor (B-RORγ LBD) (Homo sapiens (Human), UniProt P51449); experiment: Inhibitory activity on RORγ receptor in vitro by fluorescence resonance energy transfer (FRET); format: biochemical; details: average of at least two independent tests
Protocol: The inhibitory activity of compounds on RORγ receptor was determined by fluorescence resonance energy transfer (FRET) experiments. The inhibitory activity was expressed by half-inhibitory concentration (IC50).
1. Preparation of RORγ Buffer Solution
10 mL of DTT and 100 mL buffer solution were gently mixed together and ready to use.
2. Preparation of Compound Solution
(§1) 3. Preparation of Protein Mixture a. 40 nM B-RORγ LBD solution and 20 nM SA-APC solution were gently mixed together. The reaction mixture was incubated for 15 minutes at room temperature. Then 400 nM Biotin was added to the described above mixture. After gently mixed together, the resulting mixture was incubated for 10 minutes at room temperature. […]
as §1, with “b.” for “3. Preparation of Protein Mixture a.”, “Bioin-SRC1” for “B-RORγ LBD”, “10” for “20”, “SA-eu” for “SA-APC”, “together, and the” for “together. The”, “200” for “400”
d. A mixture of 0.1 μM alternative agonist
N-(2-chloro-6-fluorophenyl)-N-((20-methoxy-[1,10-biphenylyl]-4-substituted)methyl)benzenesulfonamide, 25 μL B-RORγ LBD/SA-APC and Bioin-SRC1/SA-eu mixture solution with test compound were added to one of the well of a 384-well plate, then they were centrifuged for 1 minute at 1000 rpm, and incubated at room temperature for 1 hour. The values were read on the Envision microplate detector and IC50 was calculated.

Sequence of RORγ receptor (B-RORγ LBD) (P51449 269-508): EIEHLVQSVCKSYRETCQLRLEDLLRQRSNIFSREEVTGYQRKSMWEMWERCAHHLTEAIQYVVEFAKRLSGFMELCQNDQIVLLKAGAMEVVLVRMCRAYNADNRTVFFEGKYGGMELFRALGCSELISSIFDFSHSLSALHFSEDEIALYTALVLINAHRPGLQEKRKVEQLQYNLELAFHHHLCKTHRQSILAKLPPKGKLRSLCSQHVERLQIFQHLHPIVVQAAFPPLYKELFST

O=C(O)Cc1ccc(CNC(=O)Nc2ccc(-c3ccccc3)cc2)cc1 [Example 1-23, 2-(4-((3-([1,1′-biphenyl]-4-yl)ureido)methyl)phenyl)acetic acid]
inhibition at 0.3 µM [1]: 0 to 40% | IC50 [2]: 5 to 50 µM

Cc1cc(NC(=O)NCc2ccc(CC(=O)O)cc2)cc(Cl)c1-c1ccccc1OC(F)(F)F [Example 1-17, 2-(4-((3-(2-chloro-6-methyl-2′-(trifluoromethoxy)-[1,1′-biphenyl]-4-yl)ureido)methyl)phenyl)acetic acid]
inhibition at 0.3 µM [1]: 70 to 100% | IC50 [2]: < 0.5 µM

Cc1cc(NC(=O)NCc2ccc(CC(=O)O)cc2)cc(C)c1-c1ccccc1OC(F)F [Example 1-21, 2-(4-((3-(2′-(difluoromethoxy)-2,6-dimethyl-[1,1′-biphenyl]-4-yl)ureido)methyl)phenyl)acetic acid]
inhibition at 0.3 µM [1]: 0 to 40% | IC50 [2]: < 0.5 µM

CCS(=O)(=O)c1ccc(CNC(=O)Nc2ccc(-c3ccccc3)cc2)cc1 [Example 1-2, 1-([1,1′-biphenyl]-4-yl)-3-(4-(ethylsulfonyl)benzyl)urea]
inhibition at 0.3 µM [1]: 0 to 40% | IC50 [2]: 5 to 50 µM

CNS(=O)(=O)c1ccc(CNC(=O)Nc2cc(Cl)c(-c3ccccc3OC(F)(F)F)c(Cl)c2)cc1 [Example 1-5, 4-((3-(2,6-dichloro-2′-(trifluoromethoxy)-[1,1′-biphenyl]-4-yl)ureido)methyl)-N-methylbenzenesulfonamide]
inhibition at 0.3 µM [1]: 70 to 100% | IC50 [2]: < 0.5 µM
